Results reported in the NIST ThermoML archive (doi:10.1016/j.jct.2006.08.009).

Experiment: mn = molality of the nth substance listed, in mol/kg
Details: 350 kPa, Liquid; for apparent molar heat capacity: Extra sensitive DSC

OC[C@@H](O)[C@H](O)[C@@H](O)CO [xylitol] + O
Details	apparent molar heat capacity [J/K/mol]	mass density [kg/m3]
278.15 K, m1 = 0.0499	278.9	1002.96
278.15 K, m1 = 0.1	288.4	1005.41
278.15 K, m1 = 0.4001	293.3	1020.49
278.15 K, m1 = 0.7496	297.2	1036.91
278.15 K, m1 = 1.001	299.5	1047.83
278.15 K, m1 = 1.498	303.4	1067.95
278.15 K, m1 = 1.997	301.8	1086.45
278.15 K, m1 = 2.701	311.1	1109.42
283.15 K, m1 = 0.0499	296.8	1002.63
283.15 K, m1 = 0.1	306.1	1005.03
283.15 K, m1 = 0.4001	310.2	1019.9
283.15 K, m1 = 0.7496	313.4	1036.06
283.15 K, m1 = 1.001	315.6	1046.82
283.15 K, m1 = 1.498	318.5	1066.63
283.15 K, m1 = 1.997	317.4	1084.9
283.15 K, m1 = 2.701	325	1107.65
288.15 K, m1 = 0.0499	310.8	1001.96
288.15 K, m1 = 0.1	319.8	1004.34
288.15 K, m1 = 0.4001	323.4	1019.04
288.15 K, m1 = 0.7496	326.2	1035
288.15 K, m1 = 1.001	328.1	1045.65
288.15 K, m1 = 1.498	330.3	1065.25
288.15 K, m1 = 1.997	328.7	1083.35
288.15 K, m1 = 2.701	335.7	1105.88
293.15 K, m1 = 0.0499	322.5	–
293.15 K, m1 = 0.1	331.4	–
293.15 K, m1 = 0.4001	334.8	–
293.15 K, m1 = 0.7496	337.1	–
293.15 K, m1 = 1.001	338.8	–
293.15 K, m1 = 1.498	340.5	–
293.15 K, m1 = 1.997	338.3	–
293.15 K, m1 = 2.701	344.9	–
298.15 K, m1 = 0.0499	332.9	999.86
298.15 K, m1 = 0.1	341.6	1002.2
298.15 K, m1 = 0.4001	344.5	1016.61
298.15 K, m1 = 0.7496	346.5	1032.27
298.15 K, m1 = 1.001	347.8	1042.69
298.15 K, m1 = 1.498	349.2	1061.92
298.15 K, m1 = 1.997	346.7	1079.8
298.15 K, m1 = 2.701	352.9	1101.9
303.15 K, m1 = 0.0499	342	–
303.15 K, m1 = 0.1	350.4	–
303.15 K, m1 = 0.4001	352.9	–
303.15 K, m1 = 0.7496	354.6	–
303.15 K, m1 = 1.001	355.8	–
303.15 K, m1 = 1.498	356.9	–
303.15 K, m1 = 1.997	354	–
303.15 K, m1 = 2.701	359.9	–
308.15 K, m1 = 0.0499	349.7	996.7
308.15 K, m1 = 0.1	358.1	999
308.15 K, m1 = 0.4001	360.4	1013.2
308.15 K, m1 = 0.7496	361.7	1028.7
308.15 K, m1 = 1.001	362.8	1038.8
308.15 K, m1 = 1.498	363.6	1057.9
308.15 K, m1 = 1.997	360.6	1075.2
308.15 K, m1 = 2.701	366.2	1097.2
313.15 K, m1 = 0.0499	356.5	–
313.15 K, m1 = 0.1	365	–
313.15 K, m1 = 0.4001	367	–
313.15 K, m1 = 0.7496	368.1	–
313.15 K, m1 = 1.001	369.1	–
313.15 K, m1 = 1.498	369.7	–
313.15 K, m1 = 1.997	366.6	–
313.15 K, m1 = 2.701	371.9	–
318.15 K, m1 = 0.0499	362.5	992.82
318.15 K, m1 = 0.1	370.9	995.17
318.15 K, m1 = 0.4001	372.9	1009.11
318.15 K, m1 = 0.7496	373.8	1024.37
318.15 K, m1 = 1.001	374.7	1034.54
318.15 K, m1 = 1.498	375.2	1053.25
318.15 K, m1 = 1.997	372	1070.4
318.15 K, m1 = 2.701	377.1	1092.04
323.15 K, m1 = 0.0499	368.1	–
323.15 K, m1 = 0.1	376.3	–
323.15 K, m1 = 0.4001	378.3	–
323.15 K, m1 = 0.7496	379.1	–
323.15 K, m1 = 1.001	379.8	–
323.15 K, m1 = 1.498	380.2	–
323.15 K, m1 = 1.997	377	–
323.15 K, m1 = 2.701	381.9	–
328.15 K, m1 = 0.0499	372.9	988.29
328.15 K, m1 = 0.1	381.3	990.59
328.15 K, m1 = 0.4001	383.2	1004.39
328.15 K, m1 = 0.7496	383.8	1019.46
328.15 K, m1 = 1.001	384.5	1029.53
328.15 K, m1 = 1.498	384.7	1048.03
328.15 K, m1 = 1.997	381.6	1064.94
328.15 K, m1 = 2.701	386.3	1086.4
333.15 K, m1 = 0.0499	377.6	–
333.15 K, m1 = 0.1	385.7	–
333.15 K, m1 = 0.4001	387.6	–
333.15 K, m1 = 0.7496	388.2	–
333.15 K, m1 = 1.001	388.8	–
333.15 K, m1 = 1.498	389	–
333.15 K, m1 = 1.997	385.9	–
333.15 K, m1 = 2.701	390.4	–
338.15 K, m1 = 0.0499	382	983.12
338.15 K, m1 = 0.1	389.8	985.45
338.15 K, m1 = 0.4001	391.8	999.12
338.15 K, m1 = 0.7496	392.3	1014.03
338.15 K, m1 = 1.001	392.9	1023.97
338.15 K, m1 = 1.498	392.9	1042.32
338.15 K, m1 = 1.997	389.9	1059.03
338.15 K, m1 = 2.701	394.2	1080.39
343.15 K, m1 = 0.0499	385	–
343.15 K, m1 = 0.1	393.6	–
343.15 K, m1 = 0.4001	395.5	–
343.15 K, m1 = 0.7496	395.9	–
343.15 K, m1 = 1.001	396.5	–
343.15 K, m1 = 1.498	396.5	–
343.15 K, m1 = 1.997	393.5	–
343.15 K, m1 = 2.701	397.7	–
348.15 K, m1 = 0.0499	389	977.37
348.15 K, m1 = 0.1	396.9	979.76
348.15 K, m1 = 0.4001	398.9	993.29
348.15 K, m1 = 0.7496	399.3	1008.12
348.15 K, m1 = 1.001	399.9	1017.97
348.15 K, m1 = 1.498	399.9	1036.22
348.15 K, m1 = 1.997	397	1052.82
348.15 K, m1 = 2.701	400.9	1074.02
353.15 K, m1 = 0.0499	392	–
353.15 K, m1 = 0.1	400	–
353.15 K, m1 = 0.4001	401.9	–
353.15 K, m1 = 0.7496	402.3	–
353.15 K, m1 = 1.001	402.9	–
353.15 K, m1 = 1.498	402.9	–
353.15 K, m1 = 1.997	400.2	–
353.15 K, m1 = 2.701	403.9	–
358.15 K, m1 = 0.0499	394	971.43
358.15 K, m1 = 0.1	402.5	973.65
358.15 K, m1 = 0.4001	404.6	986.64
358.15 K, m1 = 0.7496	404.9	1001.31
358.15 K, m1 = 1.001	405.5	1011.25
358.15 K, m1 = 1.498	405.5	1029.33
358.15 K, m1 = 1.997	403.2	1045.42
358.15 K, m1 = 2.701	406.4	1066.46
363.15 K, m1 = 0.0499	396	–
363.15 K, m1 = 0.1	404	–
363.15 K, m1 = 0.4001	405.9	–
363.15 K, m1 = 0.7496	406.2	–
363.15 K, m1 = 1.001	406.8	–
363.15 K, m1 = 1.498	406.7	–
363.15 K, m1 = 1.997	405.9	–
363.15 K, m1 = 2.701	407.6	–
368.15 K, m1 = 0.0499	–	964.45
368.15 K, m1 = 0.1	–	966.77
368.15 K, m1 = 0.4001	–	980.22
368.15 K, m1 = 0.7496	–	994.89
368.15 K, m1 = 1.001	–	1004.67
368.15 K, m1 = 1.498	–	1022.74
368.15 K, m1 = 1.997	–	1039.27
368.15 K, m1 = 2.701	–	1060.25
